Measured values: article PMC8280112, “Substrate reduction therapy for Krabbe disease and metachromatic leukodystrophy using a novel ceramide galactosyltransferase inhibitor” (Scientific Reports, 2021)
pIC50: −log10 of the molar value.

Assays:
wild-type mice = assay: PND15 wild-type mice tolerability study: clinical signs, wire hang, NCV, histology; assay type: in vivo, mouse
Experimental: Animals were euthanized with CO2 followed by cardiac puncture. Blood was collected via cardiac puncture and split for blood chemistry and hematology.
Beginning on the 2nd week of treatment mice were trained weekly for two weeks. Mice are placed on a wire grid, which is shaken to increase wire grabbing, and then immediately turned over. Mice are timed for their ability to hang from the inverted grid for 1 min. Three trials are performed, up to 1 min each, with a 30 s recovery period between trials. After training, mice were tested weekly and times recorded. The test was done with the grid held 10–12 in. over a box of clean shavings.
Brains were collected after removal of the calvarium, weighted, and halved following the midline. The brain was sectioned in the mid-sagittal plane with half placed in 10% NBF. One sciatic nerve and other organs [heart, lung, liver, spleen, kidney, adrenal glands, stomach, small intestine, large intestine, spinal cord (cervical, thoracic, lumbar), skin, testes, and lymph nodes] were also collected and fixed in 10% NBF. Sections of sciatic nerve were also fixed in 2% PFA, 2% glutaraldehyde, embedded, sectioned and stained with Toluidine blue before scanning. Images were analyzed to determine the G-ratio in the […].
Mice were anesthetized with isoflurane and placed on a thermostatically controlled heating pad to maintain body temperature. The recording electrode was inserted into the plantar muscles and a reference electrode was placed in the skin between toes. A pair of subcutaneous stimulating electrodes were placed distally on both sides of the ankle to stimulate the lateral plantar nerve. For proximal stimulation, the electrodes are moved to the level of the sciatic notch, to the depth of the sciatic nerve. […] Six distally-produced CMAPs were recorded and stored. The procedure was repeated using the proximal electrode pair, and current was increased until a CMAP that matches that produced by distal stimulation was evident. Six proximally-produced CMAPs were recorded and stored. The distance between the sites of stimulation was measured. NCV was later calculated using the two latencies and conduction distance. The H wave was recorded during the recording of the distally stimulated CMAPs.

rhARSA = target: T1, rhARSA (Homo sapiens, UniProt P15289); assay: Arylsulfatase A assay; assay type: biochemical; details: read-out: ARSA IC50
T1 construct: purchased R&D systems
T1 sequence (P15289 19-507): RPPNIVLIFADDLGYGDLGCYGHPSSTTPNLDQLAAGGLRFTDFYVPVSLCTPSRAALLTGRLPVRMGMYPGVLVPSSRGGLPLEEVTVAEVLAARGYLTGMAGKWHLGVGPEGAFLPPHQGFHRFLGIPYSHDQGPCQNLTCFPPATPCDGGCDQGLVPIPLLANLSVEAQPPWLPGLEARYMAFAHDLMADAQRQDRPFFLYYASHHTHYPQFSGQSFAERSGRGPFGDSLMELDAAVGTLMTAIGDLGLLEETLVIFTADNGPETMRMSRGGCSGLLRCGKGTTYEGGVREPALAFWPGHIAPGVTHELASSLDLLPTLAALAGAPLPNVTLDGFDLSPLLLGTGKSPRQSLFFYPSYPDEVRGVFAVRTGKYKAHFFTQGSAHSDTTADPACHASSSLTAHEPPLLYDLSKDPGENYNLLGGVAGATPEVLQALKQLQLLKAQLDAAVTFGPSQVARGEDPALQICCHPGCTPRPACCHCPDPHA
Experimental: The ARSA assay was modified from a previously reported method. The reaction mixture contained 40 ng of rhARSA (R&D systems), various concentrations of inhibitor, and 6.2 µM N-octadecanoyl-d3-sulfatide substrate in reaction buffer (0.08 M sodium acetate at pH 4.5, 2.08 g/L sodium taurodeoxycholate, 33 mM MnCl2, 0.4% DMSO) and was incubated for 16 h at 37 °C. The reaction was terminated with equal volume MeOH:ethyl acetate (EA). N-octadecanoyl-d35-psychosine (Matreya) was added as the IS, together with 400 µL EA and 200 µL H2O. After centrifugation, 200 µL of the EA layer was dried under a stream of N2 and resuspended in 100 µL MeOH before quantifying the N-octadecanoyl-d3-galactosylceramide product using a reported UPLC–MS/MS method.

[1] = system: GalCer and sulfatide levels; assay: PND3 wild-type mouse repeat dose study: LC-MS of GalCer and sulfatide in brain and sciatic nerve; assay type: in vivo; details: wild-type mice
Experimental: Animals were euthanized by exsanguinations under deep anesthesia, the brain and sciatic nerve were removed, rinsed in cold saline, dried, and snap frozen for lipid quantification.
Whole brain was homogenized in 3 volumes H2O (v/w) and further diluted as necessary in H2O. Given the small size, the sciatic nerve weight was recorded and homogenized in a larger fixed volume. 25 µL of diluted homogenate was added to 35 µL DMSO, 200 µL of methanol, and 325 µL acetone/methanol (50/50) and vortexed approximately 30 min. Next, 150 µL water and 300 µL water/methanol (13/87) were added before centrifuging for 5 min at RT at 14,000 rpm. […] supernatant was transferred onto a pre-conditioned C18-SPE cartridge, washed with 2 mL methanol/acetone/water (67/23/10), and eluted with 1.5 mL acetone/methanol (90/10). The eluate was dried before reconstituting with 50 µL DMSO (including N-C16:0-CD3-Glucosylceramide, IS Matreya) and 200 ACN. 3 µL of suspension was injected into LC–MS/MS for analysis. GalCers were separated from isobaric GluCers by Halo-Hilic (4.6 × 150 mm, 2.7 µm) column with a mobile phase of 95/2.5/2.5 ACN/MeOH/H2O (with 0.5 FA + 5 mM NH4OAc) 100% for 9.5 min at 50 °C and a 0.50 mL/min flow rate. Non-hydroxy-GalCer and 2-hydroxy-GalCer were detected using MRM on an LC–MS/MS (Agilent 6410) in positive ESI mode. Purified non-hydroxy-GalCer (Kerasin, Matreya) or 2-hydroxy-GalCer (Phrenosin, Matreya) were used as reference standards. All non-hydroxy-GalCer or 2-hydroxy-GalCer species identified in the reference standards were summed, normalized to the IS, and reported as percentage of vehicle control (Fig. 2B,C). In Supplementary Figure S1, individual acyl chains were identified, normalized to the IS, and plotted as percentage of vehicle control.
Previously diluted brain homogenate was serially diluted (10 µL into 90 µL and then 20 µL into 80 µL) in ACN/H2O (v/v 1:1) before being added to 300 µL ACN with IS (N-C18:0-CD3-sulfatide, Matreya). […] Non-hydroxy-sulfatide and 2-hydroxy-sulfatide were detected using MRM on a UPLC-MS/MS-22 (Triple Quad 6500) in positive ESI mode. […]

[2] = wild-type mice, chronic, 2.3 and 5.4 mg/kg

C[C@H]1N(c2ccc(Br)cc2)C(=O)N(c2ccc(Br)cc2)C1(O)c1cccc(OC(F)(F)F)c1 (stereo partly shown) [S202]
testes histopathology (wild-type mice; wild-type mice treated from PND15 to PND70): germ cell exfoliation with decreased germinal epithelial layers
longer-term (8 week) tolerability (wild-type mice; wild-type mice, IP three times per week from PND15, 2.3 mg/kg and 5.4 mg/kg): well tolerated with no mortality, change in weight, or grossly abnormal clinical signs
brain and spinal cord histology (H&E, luxol fast blue/PAS) (wild-type mice; wild-type mice, chronic treatment from PND15): widespread vacuolation
sciatic nerve conduction velocity (NCV) (wild-type mice; [2]): significant and dose-dependent reduction
wire hang test (wild-type mice; [2]): impaired performance on the wire hang test
gait (wild-type mice; wild-type mice, chronic, 2.3 and 5.4 mg/kg, some mice): mild gait abnormality
pIC50 (rhARSA): < 4.30
GalCer synthesis in the brains ([1]; higher doses (> 1.5 mg/kg)): reduced synthesis of both non-hydroxy-GalCer and 2-hydroxy-GalCer
2-hydroxy-GalCer levels in the brains ([1]; lower doses): consistently increase
non-hydroxy-GalCer levels in the brains ([1]; lower doses (0.015 to 0.5 mg/kg)): greatly decreased
